# According to patent US9988355B2, “Form A of mesylate for nicotinamide derivatives and preparation method and application thereof” (SHANGHAI SUNTRONG BIOTECHNOLOGY CO., LTD., priority 2014, dated 2018):
# Counter-ions that a name gives are not always drawn.
# Experiments:
# Assay type in all cases: physicochemical
# [1] = Solubility comparison of different crystal forms in water and ethanol
# From the text: Embodiment 15. Solubility Comparison of Different Crystal Forms
# The form A of mesylate for niacinamide derivatives prepared according to the method of the embodiment 4 and the needle solid of nicotinamide derivatives mesylate prepared according to the method of the embodiment 10 were respectively dissolved in water and ethanol, and solubility results were shown in Table 1.
# [2] = High-temperature, high-humidity and light stability of the crystal form, XRPD after 5 days
# Description: Embodiment 14. Determination of High-Temperature Stability, High-Humidity Stability and Light Stability of the Mesylate Crystal Form A of Nicotinamide Derivatives of the Present Invention
# The mesylate crystal form A of nicotinamide derivatives prepared according to the method of the embodiment 4 was tested.
# (1) High-Temperature Stability
# (2) High-Humidity Stability
# [3] = Stability comparison of different crystal forms by solid-state representation means (XRPD), 6 months
# Description: Embodiment 17. Stability Comparison of Different Crystal Forms Determined by Adopting Solid-State Representation Means
# The form A of mesylate for niacinamide derivatives prepared according to the method of the embodiment 4 and the needles solid of nicotinamide derivatives mesylate prepared according to the method of the embodiment 10 were respectively put in the environment with light, high humidity (relative humidity (RH) is 90%), room temperature and high temperature (60° C.) for 6 months, XRPD determination was performed by adopting a solid-state representation means, and examination results were shown in Table 3.
# [4] = Stability comparison of different crystal forms determined by HPLC, 6 months
# Description: Embodiment 16. Stability Comparison of Different Crystal Forms Determined by HPLC
# The form A of mesylate for niacinamide derivatives prepared according to the method of the embodiment 4 and the mesylate needles of nicotinamide derivatives prepared according to the method of the embodiment 10 were respectively put in the environment with light, high humidity (relative humidity (RH) is 90%), room temperature and high temperature (60° C.) for 6 months, the contents of related substances of the sample were determined by adopting HPLC, and examination results were shown in Table 2. HPLC testing conditions: chromatographic column Venusil MP-C18 (4.6 mm×250 mm, 5 μm, 100 Å); Mobile phase A: 0.1% acetum, B: acetonitrile, gradient conditions (0 min, 95% A; 20 min, 5% A; 25 min, 5% A; 30 min, 95% A); Detection wavelength 254 nm; Flowing speed 1 ml/min; Column temperature 30° C.; Sample amount 20 μl.
# [5] = Hygroscopicity determination by TGA after storage at room temperature, humidity 40%
# Description: Embodiment 11. Hygroscopicity Determination of the Contrast Needles Shape Solid of Nicotinamide Derivatives Mesylate
# The obtained compound referred in a Chinese patent CN101676267 was 180.2 g of white needle-like crystals (0.365 mol) with the molecular weight being 493.5. It can thus be seen that the contrast needles shape solid of nicotinamide derivatives mesylate was anhydrate. The white needles of nicotinamide derivatives mesylate were prepared according to the method of […], and a DSC-TGA pattern of the needles as shown in FIG. 2 was obtained. Wherein, the testing conditions of differential scanning calorimetry (DSC) were 10° C./min with range of 30-300° C., and TGA testing conditions were 10° C./min from room temperature to 350° C. A proper amount of the needle samples of nicotinamide derivatives mesylate were placed at the room temperature under the humidity condition of 40%, and TGA detection was conducted on the solid respectively at the time intervals of 24 hours, 48 hours and 72 hours.
smiles,measurement,setting,value
N#CC1(c2ccc(NC(=O)c3cccnc3NCc3ccncc3)cc2)CCCC1 [The form A of mesylate for niacinamide derivatives of the pr] [N-[4-(1-cyanocyclopentyl)phenyl]-2-(4-pyridylmethyl) amidogen-3-pyridineethanamine],Water solubility,[1],Insoluble
same,High-humidity stability (XRPD compared with FIG. 1),"[2]; airtight container, humidity 92.5%",good stability in a high-humidity environment
same,High-temperature stability (XRPD compared with FIG. 1),[2]; airtight drying oven of 60° C.,good high-temperature stability
same,Light stability (XRPD compared with FIG. 1),"[2]; transparent container, light 4500 lux",good light stability
same,Crystal form after storage (XRPD),[3]; 60° C. for 6 months,Unchanged
same,Crystal form after storage (XRPD),[3]; Illuminating for 6 months,Unchanged
same,Crystal form after storage (XRPD),[3]; RH90% for 6 months,Unchanged
same,Crystal form after storage (XRPD),[3]; Room temperature for 6 months,Unchanged
same,Contents of related substances of the sample by HPLC,[4]; 60° C. for 6 months,98.1%
same,Contents of related substances of the sample by HPLC,[4]; Illuminating for 6 months,99.6%
same,Contents of related substances of the sample by HPLC,[4]; RH90% for 6 months,98.5%
same,Contents of related substances of the sample by HPLC,[4]; Room temperature for 6 months,99.4%
"N#CC1(c2ccc(NC(=O)c3cccnc3NCc3ccncc3)cc2)CCCC1 [Contrast needles, N-[4-(1-cyanocyclopentyl)phenyl]-2-(4-pyridylmethyl) amidogen-3-pyridineethanamine]",Water solubility,[1],Insoluble
same,Hygroscopicity (conclusion in words),[5]; 24-72 hours,a certain hygroscopicity
same,TGA weight loss after storage under humidity,[5]; 24 hours,3.311%
same,TGA weight loss after storage under humidity,[5]; 48 hours,3.191%
same,TGA weight loss after storage under humidity,[5]; 72 hours,3.332%
same,Crystal form after storage (XRPD),[3]; 60° C. for 6 months,Unchanged
same,Crystal form after storage (XRPD),[3]; Illuminating for 6 months,Unchanged
same,Contents of related substances of the sample by HPLC,[4]; 60° C. for 6 months,98.2%
same,Contents of related substances of the sample by HPLC,[4]; Illuminating for 6 months,99.4%
same,Contents of related substances of the sample by HPLC,[4]; RH90% for 6 months,98.8%
same,Contents of related substances of the sample by HPLC,[4]; Room temperature for 6 months,99.2%
